Here are results for 11 compounds from US9814696B2, “Use of coumarin derivatives for the preparation of drugs for treating skin diseases” (UNIVERSITE PIERRE ET MARIE CURIE (PARIS 6), priority 2011, dated 2017).

The target in one data set is KLK7 (Homo sapiens, UniProt P49862). The experiment in a line: KLK7 enzyme inhibition assay, fluorogenic substrate Suc-Leu-Leu-Val-Tyr-AMC. It is filed as biochemical. The settings on record: for inhibition at 50 µM / IC50: 37° C., 15 min of incubation, pH 8; for selective activity against enzyme: KLK7: Table B, among KLK5, KLK7 and KLK14. As for the experimental part:
(§1) Kallikreins KLK5, KLK7 and KLK14 activities were determined by monitoring the hydrolysis of the appropriate fluorogenic substrate (λexc=355, λem=460 nm) for 15 min at 37° C. in the presence of the untreated kallikrein (control) or kallikrein that had been incubated with a test compound. Substrate and compounds were previously dissolved in DMSO, with the final solvent concentration kept constant at 2% (v/v) (KLK 5 and 14), and 4% (v/v) (KLK7). The composition of the activity buffers (pH 8.0) was 100 mM Tris-HCl, 150 mM NaCl, 0.01% (v/v) Tween 20 for the KLK5 assay, and 100 mM Tris-HCl, 1M NaCl, 0.01% (v/v) Tween 20 in the KLK 7 and 14 assays. The final concentrations were 0.6 nM (KLK5) and 100 μM (Boc-Val-Pro-Arg-AMC) (KLK5 assay), 8 nM (KLK7) and 40 μM (Suc-Leu-Leu-Val-Tyr-AMC, AMC: 7-amino-4-methyl-coumarin) (KLK7 assay), and 0.17 nM (KLK14) and 10 μM (Boc-Val-Pro-Arg-AMC) (KLK14 assay). Using the appropriate substrate, the coumarinic compounds (0.01-100 μM) were tested in duplicate for each inhibitor concentration to detect their inhibitory potential. The enzyme and the inhibitors were incubated for 15 min before the determination of the enzyme activity. Initial rates determined in control experiments (V0) were considered to be 100% of the peptidase activity; initial rates below 100% were considered to be inhibitions. The inhibitory activity of compounds was expressed as IC50 (inhibitor concentrations giving 50% inhibition). The values of IC50 were calculated by fitting the experimental data to the equation: % Inhibition=100×(1−Vi/V0)=100[I]0/(IC50+[I]0), or equation: % Inhibition=100[I]0^nH/(IC50^nH+[I]0^nH),nH is the Hill number.
(§2) The tests were realized at 37° C. after 15 min of incubation at pH 8.

The target in the next data set is T1, KLK5 (Homo sapiens, UniProt Q9Y337).
T1 sequence (Q9Y337 23-293): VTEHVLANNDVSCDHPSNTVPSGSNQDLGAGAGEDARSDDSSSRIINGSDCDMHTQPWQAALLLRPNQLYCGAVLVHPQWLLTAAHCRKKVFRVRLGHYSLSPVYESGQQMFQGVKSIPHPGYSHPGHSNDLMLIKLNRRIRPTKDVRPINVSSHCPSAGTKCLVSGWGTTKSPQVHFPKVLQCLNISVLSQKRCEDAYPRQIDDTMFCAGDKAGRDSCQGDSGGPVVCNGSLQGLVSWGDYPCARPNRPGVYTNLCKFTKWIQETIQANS
The experiment in a line: KLK5 enzyme inhibition assay, fluorogenic substrate Boc-Val-Pro-Arg-AMC. In kind it is biochemical. How it is done:
as §1, §2

For a further data set, the target named is T2, KLK14 (Homo sapiens, UniProt Q9P0G3).
T2 sequence (Q9P0G3 25-251): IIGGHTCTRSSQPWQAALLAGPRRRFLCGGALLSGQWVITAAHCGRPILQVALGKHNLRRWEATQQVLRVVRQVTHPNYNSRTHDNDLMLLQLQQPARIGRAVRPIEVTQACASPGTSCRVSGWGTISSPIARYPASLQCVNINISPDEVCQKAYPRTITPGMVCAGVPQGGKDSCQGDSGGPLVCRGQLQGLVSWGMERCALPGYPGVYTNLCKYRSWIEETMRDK
The experiment in a line: KLK14 enzyme inhibition assay, fluorogenic substrate Boc-Val-Pro-Arg-AMC. The settings on record: 37° C., 15 min of incubation, pH 8. In kind it is biochemical. How it is done:
as §1, §2

Data set [1] has as its system normal human keratinocytes. The experiment in a line: Neutral red uptake (NRU) cytotoxicity test / cell viability. Details: cytotoxicity, neutral red uptake test (FIG. 5): dose or concentration left out as unconfirmed. The settings on record: 48 h, human normal keratinocytes; for cytotoxicity, neutral red uptake test: 1 and 10 μM. It is filed as cell-based. From the text: The NRU cytotoxicity assay procedure is a cell survival/viability chemosensitivity assay based on the ability of viable cells to incorporate and bind neutral red (NR), a supravital dye. NR is a weak cationic dye that readily penetrates cell membranes by non-ionic diffusion and accumulates intracellularly in lysosomes. Alterations of the cell surface or the sensitive lysosomal membrane lead to lysosomal fragility and other changes that gradually become irreversible. Such changes caused by the action of xenobiotics result in a decreased uptake and binding of NR. It is thus possible to distinguish between viable, damaged, or dead cells, which is the basis of this assay. After treatment with the small-molecules inhibitors, NR uptake in cells will be measured by spectrophotometry at 540±10 nm.
Keratinocytes from healthy persons or patients with Netherton syndrome are seeded at the density of 4000 cells in 125 μL of medium per well in 96-well plates.
After seeding, cells are incubated for 48 hours in the following experimental conditions: 37° C.±1° C., 90%±5.0% humidity, and 5%±1% CO2/air. This incubation period allows for cell recovery and adherence and progression to exponential growth phase.
Prepare inhibitors solutions 2-fold more concentrated than desired. Add 125 μL of these solutions to the wells without changing or removing the medium (125 μL).
48 h hours after the beginning of the treatment, carefully remove the medium (containing the tested inhibitor) and rinse the cells very carefully with 250 μL pre-warmed PBS.
Add 250 μL NR medium and incubate (37° C.±1° C., 90%±5% humidity, and 5.0%±1% CO2/air) for 3±0.1 h. NR medium is the culture medium containing 33 μg/mL of NR. After incubation, remove the NR medium, and carefully rinse cells with 250 μL pre-warmed PBS.
Measure the absorption (within 60 minutes after adding NR Desorb solution) of the resulting colored solution at 540 nm±10 nm in a microtiter plate reader (spectrophotometer), using the blank as a reference.
A calculation of cell viability expressed as NRU is made for each concentration of the tested inhibitor by using the mean NRU of the three replicate values per each concentration. This value is compared with the mean NRU of all vehicle values. Relative cell viability is then expressed as percent of untreated vehicle control (DMSO).
Normal human keratinocytes were seeded in a 96-well tissue culture plate. At 20% of confluence, molecules were added in the culture medium and incubated for 48 h. Neutral red medium was added to every well for an incubation period of 3 h, then the dye was extracted with acidified ethanol solution. Data (FIGS. 2 and 3) represent the mean cell viability after treatment +/−SD compared to mean viability of cells treated with the vehicle only (DMSO). Data represent the mean of 5 individual experiments.

In data set [2] the test system is keratinocytes from a Netherton syndrome patient (NSK). In words: Expression of pro-allergic and inflammatory molecules (indirect KLK5 activity) in Netherton syndrome patient keratinocytes. In kind it is cell-based, human. The settings on record: 72 h, relative to HPRT. As for the experimental part:
250,000 keratinocytes from a Netherton syndrome patient (NSK) were seeded in 6 well plates in 2 mL of medium made of: (a) half of complete Green medium: (Dulbecco's Modified Eagle Media) 60%; Ham's F12 30%; FCS 10%; adenin […]; insulin 5 μg/mL; hydrocortisone 0.4 μg/mL; cholera toxin 10 nM; triiodothyronin 2 nM; human recombinant EGF 10 ng/mL; penicillin G/streptomycin 100 U/mL; (b) half of a basal medium (Epilife—Cascade Biologics).
When confluent, cells were washed 5 times with PBS and 2 mL of complete Green medium without FCS (fetal calf serum) were added per well.
Inhibitors were added in the culture medium 24 h after medium renewal.
350 μL of RLT lysis buffer (Mini Kit QIAGEN)+β-mercapto-ethanol (0.1%) were added per well to extract total RNA. The cell lysate was kept at −80° C. before RNA extraction (Mini Kit QIAGEN).
In this in cellulo test, KLK5 activity was evaluated by an indirect method. Indeed KLK5 induces TSLP (thymic stromal lymphopoietin), TNFα (tumor necrosis factor alpha) and IL-8 (interleukin 8) expression. If KLK5 activity is inhibited, the expression of these cytokines will be reduced.
The relative amount of TSLP, TNFα and IL-8 transcripts [relative to HPRT (hypoxanthine phosphoribosyltransferase 1) housekeeping gene] was compared between cells treated or not treated with the inhibitors. The ratio <<treated/not treated>> relative to housekeeping gene reflects KLK5 inhibition.
Their expression had also been studied even if their mechanism of induction is not known yet.
The effect of LP73 and CFL33 on the expression of the described pro-allergic and inflammatory cytokines was analyzed on keratinocytes from two different NS patients. Each experiment was performed twice (FIG. 4).

Where [3] appears, read: 37° C., 15 min of incubation, pH 8.
[4] abbreviates: Table A, read-out: IC50 (μM) KLK7.

Usually inhibition stands for the change of the read-out against control, counted positive when it falls. The melting point is the temperature of the solid-liquid transition. Usually IC50 stands for the concentration that gives 50% inhibition.

The structures appear in SMILES notation. Like-named read-outs stand apart in the source and are kept apart here.

KLK7, sequence (P49862 30-253): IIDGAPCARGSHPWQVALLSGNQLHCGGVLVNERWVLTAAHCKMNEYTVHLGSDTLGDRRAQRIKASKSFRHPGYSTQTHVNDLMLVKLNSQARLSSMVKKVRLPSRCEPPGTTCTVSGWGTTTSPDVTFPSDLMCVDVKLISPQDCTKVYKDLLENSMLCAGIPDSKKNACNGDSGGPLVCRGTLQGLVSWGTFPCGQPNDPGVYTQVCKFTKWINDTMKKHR

The compound `O=C(Oc1ccc(Cl)cc1)c1cc2cc(CF)ccc2oc1=O` [JFR7, 4-Chlorophenyl 6-fluoromethyl-2-oxo-2H-1-benzopyran-3-carboxylate] had a melting point of 216 to 218 °C. Also, on KLK7, the inhibition at 50 µM was 30% and the “selective activity against enzyme: KLK7” value is “KLK7”.

For `O=C(Oc1nccc2ccccc12)c1cc2ccccc2oc1=O` [CFL33, Isoquinolin-1-yl 2-oxo-2H-1-benzopyran-3-carboxylate], on KLK5 (Table A, 37° C., 15 min of incubation, pH 8, read-out: IC50 (μM) KLK5), the half-inhibitory concentration (IC50) stood at 7 ± 0.4 µM. Also, on KLK5 (Table B, among KLK5, KLK7 and KLK14), the “selective activity against enzyme: KLK5” value was “KLK5”. Further, the inhibition at 100 µM at KLK14 amounted to 61%. Besides, the “cytotoxicity, neutral red uptake test” value in data set [1] is “No noticeable cytotoxicity”. For the same compound, in data set [2] (1 μM), the “expression of IL-8” value was “significantly inhibited”, the “expression of MDC” value is “significantly inhibited” and the “expression of TARC” value was “significantly inhibited”.

Compound `O=C(Oc1cccc(Br)c1)c1cc2cc(CCl)ccc2oc1=O` [LP53] returned an inhibition at 50 µM on KLK5 (setting [3]) of 34%. In addition, the IC50 on KLK7 (setting [4]) was 0.065 ± 0.003 µM. Also, the “selective activity against enzyme: KLK7” value at KLK7 is recorded as “KLK7”. Besides, at 100 µM the inhibition against KLK14 was 41%. Moreover, the “cytotoxicity, neutral red uptake test” value in data set [1] is “No noticeable cytotoxicity”.

For `O=C(Oc1cccc(Cl)c1Cl)c1cc2cc(CCl)ccc2oc1=O` [LP73], the concentration for half-maximal inhibition (IC50) on KLK7 (setting [4]) was determined as 0.063 ± 0.004 µM. Further, on KLK7, the “selective activity against enzyme: KLK7” value is on record as “KLK7”. Moreover, the “cytotoxicity, neutral red uptake test” value in data set [1] was “No noticeable cytotoxicity”. For the same compound, in data set [2] (1 μM), the “expression of IL-8” value is “significantly inhibited”, the “expression of MDC” value was “significantly inhibited”, the “expression of TARC” value is “significantly inhibited” and the “expression of TNFα” value is “significantly inhibited”. In data set [2] (1 μM), the “expression of TSLP” value is “significantly inhibited”. Further, in data set [2] (10 μM), the “expression of TARC” value is listed as “inhibited” and the “expression of TSLP” value is “inhibited”.

`O=C(Oc1ccc2ccccc2c1)c1cc2ccccc2oc1=O` [JFR2, 2-Naphthyl 2-oxo-2H-1-benzopyran-3-carboxylate] displayed a melting point of 166 to 167 °C. Moreover, on KLK7, at 50 µM the inhibition was 30% and the “selective activity against enzyme: KLK7” value is “KLK7”.

`O=C(Sc1ccccc1)c1cc2cc(CCl)ccc2oc1=O` [LP41]: the inhibition at 100 µM amounted to 32% against KLK5 (setting [3]) and 67% on KLK14. The IC50 at KLK7 (setting [4]) came out at 0.39 ± 0.03 µM. In data set [1], the “cytotoxicity, neutral red uptake test” value is “No noticeable cytotoxicity”.

With `O=C(Oc1ccccc1)c1cc2cc(CBr)ccc2oc1=O` [JFR5, Phenyl 6-bromomethyl-2-oxo-2H-1-benzopyran-3-carboxylate], the inhibition at 50 µM on KLK5 (setting [3]) was 34%; at KLK14 (50 μM) it was 53%. Also, the half-inhibitory concentration (IC50) on KLK7 (Table A2, read-out: IC50 (nM) KLK7) came to 0.249 ± 0.0035 µM. Besides, the “cytotoxicity, neutral red uptake test (FIG. 5)” value in data set [1] is recorded as “No noticeable cytotoxicity”.

As for `O=C(Oc1ccccc1)c1cc2cc(CCl)ccc2oc1=O` [MFS7], 50 µM produced 26% inhibition against KLK5 (setting [3]). Besides, on KLK7 (setting [4]), the IC50 was 0.235 ± 0.009 µM. At KLK7, the “selective activity against enzyme: KLK7” value is recorded as “KLK7”. On KLK14, the inhibition at 100 µM is 45%. Besides, the “cytotoxicity, neutral red uptake test” value in data set [1] is given as “No noticeable cytotoxicity”.

`O=C(Oc1cc(F)ccc1F)c1cc2cc(CCl)ccc2oc1=O` [CFL5] displayed an inhibition at 100 µM on KLK5 (setting [3]) of 35%. Also, the IC50 on KLK7 (setting [4]) was found to be 0.5 ± 0.04 µM; at KLK14 (Table A, read-out: IC50 (μM) KLK14), 39 ± 4 µM. For the same compound, the “cytotoxicity, neutral red uptake test” value in data set [1] is given as “No noticeable cytotoxicity”.

As to `O=C(Oc1cccc(I)c1)c1cc2cc(CCl)ccc2oc1=O` [LP14], the inhibition at 100 µM worked out at 48% at KLK5 (setting [3]) and 70% at KLK14. The IC50 on KLK7 (setting [4]) came out at 0.077 ± 0.003 µM. Besides, the “selective activity against enzyme: KLK7” value on KLK7 is listed as “KLK7”. In addition, the “cytotoxicity, neutral red uptake test” value in data set [1] is “No noticeable cytotoxicity”.

`O=C(Oc1cccc2ccccc12)c1cc2ccccc2oc1=O` [JFR1, 1-Naphthyl 2-oxo-2H-1-benzopyran-3-carboxylate]: the melting point lay in the range of 159 to 160 °C. For the same compound, at KLK7, the inhibition at 50 µM came out at 53% and the “selective activity against enzyme: KLK7” value is reported as “KLK7”.
